Assay results as given in PubChem BioAssay AID330 (DTP/NCI, 2004).
Several values for one entry are separate records, joined by “and”; a condition that tells them apart may be missing. Equal entries are not always repeated. Inconclusive results and toxic doses are left out.

Test system: P388 leukemia ip, CD2F1 mice, survival T/C
Test: NCI In Vivo Anticancer Drug Screen. Data for tumor model P388 Leukemia (intraperitoneal) in CD2F1 (CDF1) mice
Settings: endpoint: median survival time, higher = longer survival
Procedure, shortened: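 Mice carrying the transplanted tumor received test compound or vehicle. Survival was recorded in each group, and the value is the treated-group measurement divided by that of the vehicle-treated control group.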

[1] = dose: 50.0 mg/kg/injection, schedule: Q01DX005 (ip), vehicle: saline with Tween-80
[2] = dose: 100.0 mg/kg/injection, schedule: Q01DX005 (ip), vehicle: saline with Tween-80
[3] = dose: 50.0 mg/kg/injection, schedule: Q01DX009 (ip), vehicle: saline with Tween-80
[4] = dose: 100.0 mg/kg/injection, schedule: Q01DX009 (ip), vehicle: saline with Tween-80
[5] = dose: 200.0 mg/kg/injection, schedule: Q01DX009 (ip), vehicle: saline with Tween-80
[6] = dose: 25.0 mg/kg/injection, schedule: Q01DX009 (ip), vehicle: saline with Tween-80
[7] = dose: 100.0 mg/kg/injection, schedule: Q04DX003 (ip), vehicle: saline with Tween-80
[8] = dose: 200.0 mg/kg/injection, schedule: Q04DX003 (ip), vehicle: saline with Tween-80
[9] = dose: 400.0 mg/kg/injection, schedule: Q04DX003 (ip), vehicle: saline with Tween-80
[10] = dose: 60.0 mg/kg/injection, schedule: Q01DX005 (ip), vehicle: saline with Tween-80
[11] = dose: 120.0 mg/kg/injection, schedule: Q01DX005 (ip), vehicle: saline with Tween-80

COC(=O)c1cc(=O)n(-c2ccccc2OC)c(SC)n1
T/C (dose: 25.0 mg/kg/injection, schedule: Q04DX002 (ip), vehicle: Klucel (hydroxypropylcellulose) (HPC)): 110 % of control | T/C (dose: 50.0 mg/kg/injection, schedule: Q04DX002 (ip), vehicle: Klucel (hydroxypropylcellulose) (HPC)): 100 % of control | T/C (dose: 100.0 mg/kg/injection, schedule: Q04DX002 (ip), vehicle: Klucel (hydroxypropylcellulose) (HPC)): 103 % of control

COC(=O)C1C/C=C\C=C/N(C)C1=O (centres undefined)
T/C (dose: 100.0 mg/kg/injection, schedule: Q04DX002 (ip), vehicle: saline with Tween-80): 102 % of control | T/C (dose: 200.0 mg/kg/injection, schedule: Q04DX002 (ip), vehicle: saline with Tween-80): 101 % of control | T/C (dose: 400.0 mg/kg/injection, schedule: Q04DX002 (ip), vehicle: saline with Tween-80): 101 % of control

CCOP(=O)(CS(=O)(=O)CCC1(C)NC(=O)NC1=O)OCC (centres undefined)
T/C (dose: 60.0 mg/kg/injection, schedule: Q01DX005 (ip), vehicle: saline): 101 % of control | T/C (dose: 120.0 mg/kg/injection, schedule: Q01DX005 (ip), vehicle: saline): 103 % of control | T/C (dose: 240.0 mg/kg/injection, schedule: Q01DX005 (ip), vehicle: saline): 103 % of control

O=S(=O)(CS(=O)(=O)c1ccc(Br)cc1)c1ccc(Br)cc1
T/C (dose: 60.0 mg/kg/injection, schedule: Q01DX005 (ip), vehicle: Klucel (hydroxypropylcellulose) (HPC)): 102 % of control | T/C (dose: 120.0 mg/kg/injection, schedule: Q01DX005 (ip), vehicle: Klucel (hydroxypropylcellulose) (HPC)): 107 % of control | T/C (dose: 240.0 mg/kg/injection, schedule: Q01DX005 (ip), vehicle: Klucel (hydroxypropylcellulose) (HPC)): 102 % of control

Cc1nn(-c2ccccc2)nc1CBr
T/C [1]: 97 % of control | T/C [2]: 106 % of control

C=C[C@H]1[C@H](OC2OC(CO)C(O)C(O)C2O)OC=C2C(=O)OCC[C@H]21 (some centres undefined)
T/C (dose: 0.75 mg/kg/injection, schedule: Q01DX005 (ip), vehicle: water): 95 % of control | T/C (dose: 1.5 mg/kg/injection, schedule: Q01DX005 (ip), vehicle: water): 95 % of control | T/C (dose: 3.0 mg/kg/injection, schedule: Q01DX005 (ip), vehicle: water): 93 % of control | T/C (dose: 6.0 mg/kg/injection, schedule: Q01DX005 (ip), vehicle: water): 93 % of control

C(=C1/SC(c2ccccc2)=NC1c1ccccc1)/c1ccccc1 (centres undefined)
T/C [3]: 92 % of control | T/C [4]: 88 % of control | T/C [5]: 96 % of control

CC1=C(CN(CC(=O)O)CC(=O)O)C(=O)C(C(C)C)=C/C1=C(\c1ccccc1S(=O)(=O)O)c1cc(C(C)C)c(O)c(CN(CC(=O)O)CC(=O)O)c1C
T/C (dose: 50.0 mg/kg/injection, schedule: Q01DX009 (ip), vehicle: saline): 108 % of control | T/C (dose: 100.0 mg/kg/injection, schedule: Q01DX009 (ip), vehicle: saline): 104 % of control | T/C (dose: 200.0 mg/kg/injection, schedule: Q01DX009 (ip), vehicle: saline): 103 % of control

O=C1/C(=C/c2ccccc2)CCC/C1=C\c1ccccc1
T/C [6]: 104 % of control | T/C [3]: 104 % of control | T/C [4]: 100 % of control

CC(C)=CCCC1(C)C=Cc2c(ccc3c(C)noc23)O1 (centres undefined)
T/C [1]: 100 % of control | T/C [2]: 89 % of control | T/C (dose: 200.0 mg/kg/injection, schedule: Q01DX005 (ip), vehicle: saline with Tween-80): 110 % of control

COc1ccc(CC(=O)NCCc2ccc3cc(OC)c(OC)cc3c2)cc1OC
T/C [7]: 100 % of control | T/C [8]: 100 % of control | T/C [9]: 100 % of control

CC1=CC2=C(C=O)C(=O)[C@](C)(O)[C@@H](O)C2=CO1
T/C (dose: 12.5 mg/kg/injection, schedule: Q01DX009 (ip), vehicle: saline with Tween-80): 109 % of control | T/C [6]: 118 % of control

COc1cc(CC2C(=O)OCC2C2(c3ccc4c(c3)OCO4)SCCCS2)cc(OC)c1OC (centres undefined)
T/C (dose: 50.0 mg/kg/injection, schedule: Q01DX009 (ip), vehicle: Klucel (hydroxypropylcellulose) (HPC)): 105 % of control | T/C (dose: 100.0 mg/kg/injection, schedule: Q01DX009 (ip), vehicle: Klucel (hydroxypropylcellulose) (HPC)): 91 % of control | T/C (dose: 200.0 mg/kg/injection, schedule: Q01DX009 (ip), vehicle: Klucel (hydroxypropylcellulose) (HPC)): 93 % of control

O=C(CCSCCC(=O)N/N=C(\CO)C(O)C(O)C(O)CO)N/N=C(/CO)C(O)C(O)C(O)CO (centres undefined)
T/C (dose: 50.0 mg/kg/injection, schedule: Q01DX005 (ip), vehicle: suspension in saline): 99 % of control | T/C (dose: 100.0 mg/kg/injection, schedule: Q01DX005 (ip), vehicle: suspension in saline): 104 % of control | T/C (dose: 200.0 mg/kg/injection, schedule: Q01DX005 (ip), vehicle: suspension in saline): 97 % of control

Cn1c2c(c(=O)c3c4c(=O)c5c([nH]c4ccc31)CCCC5)CCCC2
T/C [7]: 100 % of control | T/C [8]: 94 % of control | T/C [9]: 86 % of control

CC(O)CN=Cc1ccccc1[O-].CC(O)CN=Cc1ccccc1[O-].[Cu+2] (centres undefined)
T/C (dose: 15.0 mg/kg/injection, schedule: Q01DX005 (ip), vehicle: saline with Tween-80): 95 % of control | T/C (dose: 30.0 mg/kg/injection, schedule: Q01DX005 (ip), vehicle: saline with Tween-80): 94 % of control | T/C [10]: 101 % of control and 89 % of control

COc1cccc2c1C(=O)c1c(O)c3c(c(O)c1C2=O)C[C@@](O)(C(O)CO)C[C@@H]3OC1CC(NCc2ccccc2)C(O)C(C)O1 (some centres undefined)
T/C (dose: 0.39 mg/kg/injection, schedule: Q01DX009 (ip), vehicle: water): 158 % of control and 167 % of control | T/C (dose: 0.78 mg/kg/injection, schedule: Q01DX009 (ip), vehicle: water): 157 % of control and 162 % of control and 169 % of control | T/C (dose: 1.18 mg/kg/injection, schedule: Q04DX003 (ip), vehicle: water): 106 % of control | T/C (dose: 1.56 mg/kg/injection, schedule: Q01DX009 (ip), vehicle: water): 157 % of control and 190 % of control and 196 % of control | T/C (dose: 2.35 mg/kg/injection, schedule: Q04DX003 (ip), vehicle: water): 106 % of control | T/C (dose: 3.13 mg/kg/injection, schedule: Q01DX009 (ip), vehicle: water): 163 % of control and 176 % of control and 192 % of control | T/C (dose: 9.4 mg/kg/injection, schedule: Q04DX003 (ip), vehicle: water): 116 % of control

Cc1c(N=Nc2ccc(Br)cc2)c(-c2ccccc2)nn1C(N)=S
T/C (dose: 50.0 mg/kg/injection, schedule: Q01DX005 (ip), vehicle: Klucel (hydroxypropylcellulose) (HPC)): 102 % of control | T/C (dose: 100.0 mg/kg/injection, schedule: Q01DX005 (ip), vehicle: Klucel (hydroxypropylcellulose) (HPC)): 105 % of control

O=C1C=CC(Nc2ccccc2[N+](=O)[O-])C1Nc1ccccc1[N+](=O)[O-] (centres undefined)
T/C [10]: 114 % of control | T/C [11]: 113 % of control

Cc1oc2ccccc2c(=O)c1Cn1cnc2ccc([N+](=O)[O-])cc21
T/C [10]: 102 % of control | T/C [11]: 93 % of control | T/C (dose: 240.0 mg/kg/injection, schedule: Q01DX005 (ip), vehicle: saline with Tween-80): 91 % of control

c1ccc2c(c1)nc1n2CC2(CO1)COc1nc3ccccc3n1C2
T/C [3]: 99 % of control | T/C [4]: 99 % of control | T/C [5]: 104 % of control

CCOC(=O)c1cnc2c(C(F)(F)F)cccc2c1Nc1ccc2c(c1)OCO2
T/C (dose: 60.0 mg/kg/injection, schedule: Q01DX005 (ip), vehicle: Klucel + Tween-80): 100 % of control | T/C (dose: 120.0 mg/kg/injection, schedule: Q01DX005 (ip), vehicle: Klucel + Tween-80): 103 % of control | T/C (dose: 240.0 mg/kg/injection, schedule: Q01DX005 (ip), vehicle: Klucel + Tween-80): 97 % of control

COc1cc2cc(c1Cl)N(C)C(=O)CC(O)C1(C)OC1C(C)C1CC(O)(NC(=O)O1)C(OC)/C=C/C=C(C)C2OC (centres undefined)
T/C (dose: 4.0 micrograms/kg/injection, schedule: Q01DX009 (ip), vehicle: distilled water + Tween-80 + alcohol): 97 % of control | T/C (dose: 8.0 micrograms/kg/injection, schedule: Q01DX009 (ip), vehicle: distilled water + Tween-80 + alcohol): 104 % of control | T/C (dose: 16.0 micrograms/kg/injection, schedule: Q01DX009 (ip), vehicle: distilled water + Tween-80 + alcohol): 97 % of control | T/C (dose: 32.0 micrograms/kg/injection, schedule: Q01DX009 (ip), vehicle: distilled water + Tween-80 + alcohol): 107 % of control | T/C (dose: 32.0 micrograms/kg/injection, schedule: Q01DX009 (ip), vehicle: distilled water + alcohol): 99 % of control | T/C (dose: 64.0 micrograms/kg/injection, schedule: Q01DX009 (ip), vehicle: distilled water + alcohol): 101 % of control | T/C (dose: 128.0 micrograms/kg/injection, schedule: Q01DX009 (ip), vehicle: distilled water + alcohol): 101 % of control
